Reference: patent US10040798B2, “Pyrrolopyridazine inhibitors of IRAK4 activity” (MERCK SHARP & DOHME CORP., priority 2015, dated 2018)
Counter-ions that a name gives are not always drawn.

target: IRAK4 (Homo sapiens (Human), UniProt Q9NWZ3); assay: IRAK4 Kinase Assay (IMAP fluorescence polarization); format: biochemical; details: 0.5 nM GST tagged IRAK4, 100 μM ATP, 30 minutes at 25° C., IMAP FP
Procedure, shortened: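 GST-tagged IRAK4 (0.5 nM) phosphorylated 100 nM fluorescent peptide RP7030 with 100 μM ATP in 10 mM Tris-HCl pH 7.2, MgCl2, DTT and Tween 20 for 30 min at 25 °C. Phosphorylation was read as the increase in fluorescence polarization after binding to IMAP nanoparticles.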

IRAK4, sequence (Q9NWZ3 whole entry): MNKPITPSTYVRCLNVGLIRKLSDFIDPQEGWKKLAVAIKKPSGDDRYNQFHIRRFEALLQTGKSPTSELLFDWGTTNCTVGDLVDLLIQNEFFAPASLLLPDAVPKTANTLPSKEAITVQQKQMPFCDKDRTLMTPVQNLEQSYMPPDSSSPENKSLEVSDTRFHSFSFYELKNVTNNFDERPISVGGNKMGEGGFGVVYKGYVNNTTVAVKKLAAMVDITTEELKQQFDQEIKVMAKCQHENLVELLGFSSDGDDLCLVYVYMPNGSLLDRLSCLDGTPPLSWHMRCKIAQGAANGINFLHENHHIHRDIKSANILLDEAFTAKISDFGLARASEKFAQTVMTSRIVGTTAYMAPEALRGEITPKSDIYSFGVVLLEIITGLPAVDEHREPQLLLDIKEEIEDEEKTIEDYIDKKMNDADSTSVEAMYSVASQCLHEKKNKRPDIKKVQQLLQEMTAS

Structure (SMILES)	IC50 [nM]
N[C@@H]1[C@H](Nc2ccc3ccc(C(=O)Nc4ccccc4C(F)F)n3n2)CCCC1(F)F [Example 118, 2-{[(1R,2R)-2-amino-3,3-difluorocyclohexyl]amino}-N-[2-(difluoromethyl)phenyl]pyrrolo[1,2-b]pyridazine-7-carboxamide trifluoroacetate]	7390
Cn1cc(NC(=O)c2ccc3ccc(N4C5CCC4CNC5)nn23)c(C(F)F)n1 [Example 119, 2-(3,8-Diazabicyclo[3.2.1]octan-8-yl)-N-(3-(difluoromethyl)-1-methyl-1H-pyrazol-4-yl)pyrrolo[1,2-b]pyridazine-7-carboxamide]	0.5
Cn1cc(NC(=O)c2ccc3ccc(N4C5CCC4CNC5)nn23)c(C(F)(F)F)n1 [Example 120, 2-(3,8-diazabicyclo[3.2.1]oct-8-yl)-N-[1-methyl-3-(trifluoromethyl)-1H-pyrazol-4-yl]pyrrolo[1,2-b]pyridazine-7-carboxamide trifluoroacetate]	2
Cn1cc(NC(=O)c2ccc3ccc(N4C[C@@H]5CNC[C@H]4C5)nn23)c(C(F)(F)F)n1 [Example 122, 2-[(1S,5R)-(1R,5S)-3,6-diazabicyclo[3.2.1]oct-6-yl]-N-[1-methyl-3-(trifluoromethyl)-1H-pyrazol-4-yl]pyrrolo[1,2-b]pyridazine-7-carboxamide]	39
Cn1cc(NC(=O)c2ccc3ccc(N4C[C@H]5CNC[C@@H]4C5)nn23)c(C(F)(F)F)n1 [Example 123, 2-[(1S,5R)-(1R,5S)-3,6-diazabicyclo[3.2.1]oct-6-yl]-N-[1-methyl-3-(trifluoromethyl)-1H-pyrazol-4-yl]pyrrolo[1,2-b]pyridazine-7-carboxamide]	114
